In brackets after ≈: the same amount, converted by molar mass.

In general, MIC refers to the smallest concentration in the dilution series that meets the test's criterion for growth inhibition. Low readings indicate a more susceptible organism, high ones a less susceptible organism.

The test deals with Mycobacterium tuberculosis. In words: Antimycobacterial activity against Mycobacterium tuberculosis H37Rv after 2 weeks. Format: functional. Conditions: 336 h.
`COc1cc(C2c3c(cc(OC)c(O)c3OC)C=C(C(=O)NCCc3ccc(O)cc3)C2C(=O)NCCc2ccc(O)cc2)cc(OC)c1O` (configuration not stated) returned an MIC of over 100 µg/mL. In the case of `COc1cc(/C=C/C(=O)NCCc2ccc(O)cc2)ccc1O` [N-TRANS-FERULOYL TYRAMINE], the MIC was 60 µg/mL (≈ 191 µM). Take `CC[C@@H](CO)NCCN[C@@H](CC)CO` [ETHAMBUTOL]: it took 6.25 µg/mL (≈ 30.6 µM) to inhibit growth (MIC). Against the preceding compound, the MIC is about 9.6-fold lower. Consider `COc1cc(/C=C/C(=O)NCCc2ccc(O)c(OC)c2)ccc1O`, for which the minimum inhibitory concentration (MIC) was 1.6 µg/mL (≈ 4.66 µM). The same measure for `COc1cc(OC)c(C[C@@H](O)Cc2ccc(OC)c(OC)c2)c(OC)c1` [HYPOPHAOL]: 100 µg/mL (≈ 276 µM); for `CCCCCCCCCCCCC/C=C1/C(=O)O[C@](C)(OC)[C@@H]1O` [LITSEAKOLIDE L]: 25 µg/mL (≈ 73.4 µM); for `COc1cc(/C=C/C(=O)NCCc2ccc(O)cc2)cc(OC)c1O` [TRANS-N-SINAPOYLTYRAMINE]: over 100 µg/mL.
